# Assay results taken from patent publication US20260174778A1, “SULFONAMIDE COMPOUND, AND PREPARATION METHOD THEREFOR AND USE THEREOF” (SHANGHAI HENLIUS BIOTECH, INC., priority 2023, published 2026).
# Tested on: breast cancer cell line ZR-75-1
# Assay: Inhibition of proliferation of breast cancer cell line ZR-75-1 (CellTiter-Glo)
# Type: cell-based
# Conditions: Homo sapiens, 240 h, proliferation of ZR-75-1 cells, 10 days of incubation, read-out: IC50 (KAT6A)
row,IC50 [nM],Structure (SMILES)
1,< 0.5,"COc1ccc2c(c1S(=O)(=O)Nc1noc3cc(Cn4cccn4)c(F)c(OC)c13)OCCO2 [Compound 28, N-(6-((1H-Pyrazol-1-yl)methyl)-5-fluoro-4-methoxybenzo[d]isoxazol-3-yl)-6-methoxy-2,3-dihydrobenzo[b][1,4]dioxine-5-sulfonamide]"
2,< 0.5,"COc1ccc2c(c1S(=O)(=O)Nc1noc3cc(Cn4cccn4)c(F)c(OC)c13)OCCC2=O [Compound 42, N-(6-((1H-Pyrazol-1-yl)methyl)-5-fluoro-4-methoxybenzo[d]isoxazol-3-yl)-7-methoxy-4-oxochromane-8-sulfonamide]"
3,0.5 to 2,"COc1ccccc1S(=O)(=O)Nc1noc2cc(Cn3cccn3)cc(OC)c12 [PF-8144, reference compound]"

# The next lines start with the molecule.
row,Structure (SMILES),IC50 [nM]
1,"COc1ccc2c(c1S(=O)(=O)Nc1noc3cc(Cn4cccn4)c(F)c(OC)c13)OCC=C2 [Compound 101, N-(6-((1H-Pyrazol-1-yl)methyl)-5-fluoro-4-methoxybenzo[d]isoxazol-3-yl)-7-methoxy-2H-chromene-8-sulfonamide]",< 0.5
2,"COc1ccc2c(c1S(=O)(=O)Nc1noc3cc(Cn4cccn4)c(F)c(OC)c13)OCCN2C [Compound 109, N-(6-((1H-Pyrazol-1-yl)methyl)-5-fluoro-4-methoxybenzo[d]isoxazol-3-yl)-7-methoxy-4-methyl-3,4-dihydro-2H-benzo[b][1,4]oxazine-8-sulfonamide]",< 0.5
